For assay [1], the system named is C3. Kind of assay: C3 expression in HepG2 cell line, RT-PCR of mRNA. Format: cell-based, human. The settings on record: HepG2 cells, S6I 10 and 100 microgram/ml, relative to PLAG 1 and 10 microgram/ml. On the procedure:
A liver cell line, HepG2 (American Type Culture Collection, ATCC, Rockville, Md.), is incubated and maintained at 37° C., 5% CO2 humid atmosphere in DMEM medium. When HepG2 cells, which are known to produce complement in culture, are treated with PLAG, the activity of complement is reduced effectively, as confirmed by RT-PCR of mRNA. In the RT-PCR, 5×10^5 number of HepG2 cells/ml are distributed into 12 well plates and induced C3 for 12 hours with 10% FCS. Then PLAG is added and further cultured for 2 hours. Cells are harvested and mRNA is isolated and RT-PCR is carried out with specific primer of C3; GAPDH is used as an internal control.

The test system of assay [2] is C3. Kind of assay: C3 expression in IL-4/TNF-α treated HMC-1 cells, RT-PCR. Format: cell-based, human. The settings on record: HMC-1 cells treated with IL-4 and TNF-α; PLAG 0.1 and 1 μg/mL pre-treatment, or S6I. On the procedure: A blood cell line, HMC-1 (human mast cell, American Type Culture Collection, ATCC, Rockville, Md.) is incubated and maintained at 37° C. under 5% CO2 humid conditions. The medium is IMDM (Life Technologies, Karlsruhe, Germany) containing 10% Fetal Calf Serum (FCS, HyClone, Logan, Utah), 2 mM […], 100 μg/ml penicillin, 100 μg/ml streptomycin (Life Technologies). The cultured HMC-1 cells (1×10^6 cell/ml) are pre-treated with 0.1 and 1 μg/mL concentration of PLAG, followed by treating with IL-4 (5 ng) and/or TNF-α (10 ng) to induce cellular activities.
The expressed C3 and its mRNA level change are observed by using RT-PCR (Reverse Transcriptase Polymerase Chain Reaction). The RT-PCR is carried out as follows: the total RNA is separated by the standard protocol and cDNA is synthesized using AccuScript High Fidelity 1st Strand cDNA Synthesis Kit (Stratagene) by the manufacturer's instructions. Two-step RT-PCR reaction is conducted using Oligo-dT primer and reverse transcriptase, pair of primer and Taq polymerase (Takara, Shiga, Japan). […] The product of PCR is separated using 1.5% agarose gel, dyed with ethidium bromide (EtBr), and visualized with Gel Doc 2000 UV trans-illuminator (Bio-Rad Laboratories, Hercules, Calif., USA), and the experimental data is analyzed using Quantity One software (Bio-Rad Laboratories).

Assay [3] has as its system white blood cells and neutrophils. In words: PLAG in combination with G-CSF in cyclophosphamide-treated mouse model. Format: in vivo, mice. The settings on record: cyclophosphamide 100 mpk i.p. ten days; G-CSF 0.25 mpk i.p.; PLAG 25 mpk p.o. The text has this:
Mice receive cyclophosphamide (100 mpk, i.p.) for a period of ten days, with or without G-CSF (0.25 mpk, i.p.) or G-CSF (0.25 mpk, i.p.) plus PLAG (25 mpk, p.o.): […]

For the compound `NC(=O)c1cnc(NCCc2ccc(O)c(Cl)c2)nc1NCc1ccccc1` [S6I, reference compound], the “inhibition of C3 expression (RT-PCR)” value with C3 [1] is given as “comparable”. Also, the “expression of C3” value in the assay with C3 [2] was “suppresses expression of C3”.

As for “G-CSF: Granulocyte-colony stimulating factor, a glycoprotein that stimulates hematopoietic precursor cells in the bone marrow”, in assay [3], the Neutrophils is on record as 4.36 k/μl and the “White blood cells (WBCs)” value is given as 5.37 k/μl.
